Data: US10723699B2 (Hyundai Pharm Co., Ltd., priority 2015, dated 2020)
Entries after “also recorded” stand apart in the source; their conditions may differ.

Assays:
[1] = tested on: diet-induced obesity (DIO) rat model; assay: OGTT at the end of the 4-week administration in DIO rat model; type: in vivo, Sprague Dawley (SD) rats; conditions: 50 mg/kg oral; glucose 2 g/kg 30 minutes later; after 4-week administration
Method: (§1) Specifically, male Sprague Dawley (SD) rats (approximately 4 weeks old) in a diet-induced obesity model were fed with a high-fat diet (Lab. Diet Co.) for approximately 10 weeks to induce high-fat diet-induced obesity (DIO). The rats undergoing the high-fat diet were randomly selected, and divided into groups (n=8) for respective administrations. The compounds of Comparative Examples 3 and 4 and Examples 48 and 119 were administered to the divided DIO rats each group for 4 weeks.
(§2) The weights of the DIO rats were measured twice a week during a period of administration of 4 weeks to record a change in the weights. At the end of the 4-week period of administration, a hypoglycemic effect was evaluated using an oral glucose tolerance test (OGTT), as follows.
Specifically, each of the compounds of Comparative Example 3 (300 mg/kg) and Examples 48 and 119 (10, 20, 50 mg/kg) was administered, and 2 g/kg of glucose was orally administered after 30 minutes of the administration. A blood glucose level was determined using an Accu-Chek Active Strip (Roche diagnostic Co.). In this case, the glucose level in blood collected via caudal venipuncture was measured at time points of −30, 0, 20, 40, 60, and 120 minutes after glucose administration. […]

[2] = tested on: diet-induced obesity (DIO) rat model; assay: Changes in weights in diet-induced obesity (DIO) rat model, 4-week administration; type: in vivo, Sprague Dawley (SD) rats; conditions: 10, 20, and 50 mg/kg oral, 4 weeks
Method: To simultaneously evaluate both the weight-loss and hypoglycemic effects of the cyclohexene derivative according to the present invention, experiments were carried out, as follows.
as §1, §2

[3] = tested on: NCI-H716 cells; assay: Promotion of glucagon-like peptide-1 (GLP-1) secretion (ELISA); type: cell-based, human; conditions: 1, 10 and 30 μM-treated groups
Method: To evaluate an effect of the cyclohexene derivative according to the present invention on promotion of glucagon-like peptide-1 (GLP-1) secretion, experiments were carried out, as follows.
NCI-H716 cells that were human enterocytes were plated on 12 wells at 1×10^6 cells per well. After 48 hours, the cells were starved in serum-free media for 2 hours, and treated with a varying concentration of siptagliptin that was a dipeptidyl peptidase-IV (DPP-IV) inhibitor, and the compounds of Comparative Example 1 (1, 10, 30 μM), Comparative Example 5 (10 μM), Example 48 (1, 10, 30 μM), and Example 291 (1, 10, 30 μM). After an hour, supernatants are recovered to determine an amount of the secreted GLP-1 peptide. The GLP-1 measurement was performed using an enzyme-linked immunosorbant assay (ELISA; Millipore, EGLP-35K), and the amount of the secreted GLP-1 peptide was indicated by the unit “pM”.

With `CC(C)c1noc(N2CCC(COc3ccc(C4=CCC(C(=O)N5CC[C@@H](O)C5)CC4)cc3)CC2)n1` (stereo partly drawn) [Example 48, ((R)-3-hydroxypyrrolidin-1-yl)(4-(4-((1-(3-isopropyl-1,2,4-oxadiazol-5-yl)piperidin-4-yl)methoxy)phenyl)cyclohex-3-enyl)methanone] the hypoglycemic effect [1] was “approximately 25%”, the “changes in weights of rats (weight-loss effect)” value [2] was “higher weight-loss effect; also recorded: persistent weight loss was observed for 4 weeks” and the “GLP-1 secretion compared with Comparative Example 1” value [3] was “higher level than that of Comparative Example 1”.
